From US3963707A, “Novel N-nitroso compounds, compositions containing such compounds, processes for their preparation and methods of treatment therewith, and novel intermediates” (Aktiebolaget Leo, priority 1973, dated 1976)

Experiments:
in vivo = assay: in vivo; set-up: species or system SPF Wistar rats; conditions: rat, in vivo, ip; one injection i.p., rats; dose causing 50 percent lethality
Summary of the method: (§1)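 Therapeutic index (LD50/ED50) was derived from tumour weight against controls at day-8 sacrifice, with ED50 the dose giving 50% tumour reduction. Rats (SPF Wistar) bore 5 × 10^6 hepatoma cells implanted intraperitoneally. A single i.p. injection followed on the day after implantation.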

Hepatoma AH 130 = assay: in vivo; set-up: species or system SPF Wistar rats; conditions: for T.I. (LD50/ED50): Hepatoma AH 130, rats, i.p.; for ED50: Rattus norvegicus, ip, 192 h, one injection i.p. day after implantation, dose causing 50 percent reduction of tumour size
Summary of the method: as §1

[1] = test system: Ehrlich ascites tumour, ELD hyperdiploid (46 chromosomes); assay: Ehrlich ascites tumour test (LD50, ED50, therapeutic index); format: in vivo, SPF NMRI mice; conditions: additional compounds, result in words
Source text: The high activity against tumours is further illustrated in these experiments by comparisons with known antitumour agents used in the therapy. The therapeutic indexes (T.I.), i.e. the ratios LD50/ED50, are in all comparisons much more favourable with the compounds of the present invention.
LD50 is the dose that caused a 50 percent lethality of the animals, ED50 is the dose that caused a 50 percent reduction of tumour size.
(§2) The experimental design and the interpretation of the results have been in accordance with the standards set by the CCNSC (Cancer Chemotherapy Reports, January 1959 and December 1962), and by the DR&D (Cancer Chemotherapy Reports, September 1972, Vol. 3, No. 2).
(§3) The way of administration is by the intraperitoneal route (i.p.) in each case.
Ehrlich ascites tumour, ELD hyperdiploid (46 chromosomes)
Experimental animals: SPF NMRI mice.
Tumour implant: 2 × 10^6 tumour cells i.p.
(§4) Therapy: One injection i.p. on the day following implantation.
Termination: The animals are killed on the 8th day.
Evaluation: Weights of tumours of test animals compared with those of control animals.

[2] = test system: Walker carcinosarcoma 256; assay: Walker carcinosarcoma 256 test; format: in vivo, Sprague Dawley rats; conditions: for Lethality: died/used animals
Source text: as §2, §3
Walker carcinosarcoma 256
Experimental animals: Sprague Dawley rats.
Tumour implant: Tumour pieces with 2-4 mm diameter, subcutaneously.
Therapy: Daily injections i.p. for 5 days starting on the day following implantation.
Termination: The animals are killed on the 9th day.
Evaluation: Weights of tumours of test animals are compared with those of control animals. The differences, in per cent of weights of tumours of control animals, give per cent tumour inhibition.
The lethality is given as the number of animals which died in the experiment/the number of animals used in the experiments.

[3] = test system: Lymphatic leukemia L 1210; assay: Lymphatic leukemia L 1210 test; format: in vivo, CDF1 (C3H×DBA/2)F1 mice; conditions: dose of 1000 mg/kg, comparative compounds
Source text: as §2, §3
Lymphatic leukemia L 1210
Experimental animals: CDF1 (C3H×DBA/2)F1 mice.
Tumour implant: 10^5 tumour cells i.p.
as §4
Evaluation: a) The survival time of the test animals (t) expressed as the percentage of that of control animals (c).
b. Weight change in the test animals (T) compared with that of the control animals (c) up to the 5th day.
c. The mortality rate must not exceed 35% in the test animals on the 5th day of therapy.

[4] = doses 1 × 250, 1 × 500 and 1 × 1000 mg/kg respectively
[5] = additional compounds, result in words

Row | SMILES | LD50 (in vivo) | ED50 (Hepatoma AH 130) | anti-tumor activity [1] | anti-tumor activity (Hepatoma AH 130; [5]) | further results
1 | CC(C)CCC[C@@H](C)[C@H]1CC[C@H]2[C@@H]3CC=C4C[C@@H](OC(=O)N(CCCl)N=O)CC[C@]4(C)[C@H]3CC[C@]12C [cholesterol-3β-N-(2-chloroethyl)-N-nitroso carbamate] | > 1000 mg/kg | 200 mg/kg | exhibit anti-tumor activity |  | T.I. (LD50/ED50) (Hepatoma AH 130): > 5; Tumour inhibition % ([2]; 5×500 mg/kg i.p.): 39%; Lethality ([2]; 5×500 mg/kg i.p.): 0/8
2 | C[C@]12CC[C@H](OC(=O)N(CCCBr)N=O)CC1=CC[C@@H]1[C@@H]2CC[C@]2(C)C(=O)CC[C@@H]12 [dehydroepiandrosterone - 3β-N-(3-bromopropyl)-N-nitroso carbamate] |  |  | exhibit anti-tumor activity |  | Tumour inhibition % ([2]; 5×125 mg/kg i.p.): 39%; Lethality ([2]; 5×125 mg/kg i.p.): 0/8
3 | C[C@]12CC[C@H](OC(=O)N(CCBr)N=O)CC1=CC[C@@H]1[C@@H]2CC[C@]2(C)C(=O)CC[C@@H]12 [dehydroepiandrosterone-3β-N-(2-bromoethyl)-N-nitroso carbamate] | > 1000 mg/kg | 70 mg/kg | exhibit anti-tumor activity |  | T.I. (LD50/ED50) (Hepatoma AH 130): > 14; Tumour inhibition % ([2]; 5×250 mg/kg i.p.): 61%; Lethality ([2]; 5×250 mg/kg i.p.): 0/8
4 | CC(=O)O[C@H]1CC[C@H]2[C@@H]3CC=C4C[C@@H](OC(=O)N(CCCl)N=O)CC[C@]4(C)[C@H]3CC[C@]12C [androstenediol-17β-acetate-3β-N-(2-chloroethyl)-N-nitroso carbamate] | > 250 mg/kg | 0.25 mg/kg | exhibit anti-tumor activity |  | Tumour inhibition % ([2]; 5×125 mg/kg i.p.): 59%; Lethality ([2]; 5×125 mg/kg i.p.): 0/8
5 | CN(CCCl)C(=O)O[C@H]1CC[C@@]2(C)C(=CC[C@@H]3[C@@H]2CC[C@]2(C)C(=O)CC[C@@H]32)C1 [dehydroepiandrosterone-3β-N-(2-chloroethyl)-N-methyl carbamate, reference compound] |  |  |  |  | anti-tumor activity (Hepatoma AH 130; [4]): inactive; Tumour inhibition % ([2]; 5×500 mg/kg i.p.): < 10%; Lethality ([2]; 5×500 mg/kg i.p.): 0/8
6 | CC(Cl)CN(N=O)C(=O)O[C@H]1CC[C@@]2(C)C(=CC[C@@H]3[C@@H]2CC[C@]2(C)C(=O)CC[C@@H]32)C1 (stereo partly drawn) [dehydroepiandrosterone-3β-N-(2-chloropropyl)-N-nitroso carbamate] | > 1000 mg/kg | 100 mg/kg | exhibit anti-tumor activity |  | T.I. (LD50/ED50) (Hepatoma AH 130): > 10
7 | C[C@]12CC[C@H](OC(=O)NCCCl)CC1=CC[C@@H]1[C@@H]2CC[C@]2(C)C(=O)CC[C@@H]12 [dehydroepiandrosterone-3β-N-(2-chloroethyl) carbamate, reference compound] |  |  |  |  | effect on L 1210 [3]: without effect; anti-tumor activity (Hepatoma AH 130; [4]): inactive
8 | CC(=O)O[C@H]1CC[C@H]2[C@@H]3CCc4cc(OC(=O)N(CCCl)N=O)ccc4[C@H]3CC[C@]12C [estradiol-17β-acetate-3-N-(2-chloroethyl)-N-nitroso carbamate] | > 1000 mg/kg | < 0.25 mg/kg | exhibit anti-tumor activity |  | T.I. (LD50/ED50) (Hepatoma AH 130): > 4.000; Tumour inhibition % ([2]; 5×125 mg/kg i.p.): 69%; Lethality ([2]; 5×125 mg/kg i.p.): 1/8
9 | C[C@]12CC[C@H](OC(=O)N(CCCCl)N=O)CC1=CC[C@@H]1[C@@H]2CC[C@]2(C)C(=O)CC[C@@H]12 [dehydroepiandrosterone-3β-N-(3-chloropropyl)-N-nitroso carbamate] | > 1000 mg/kg | 375 mg/kg | exhibit anti-tumor activity |  | T.I. (LD50/ED50) (Hepatoma AH 130): > 2.7; Tumour inhibition % ([2]; 5×500 mg/kg i.p.): 24%; Lethality ([2]; 5×500 mg/kg i.p.): 0/8
10 | CCCCN(C(=O)O[C@H]1CC[C@@]2(C)C(=CC[C@@H]3[C@@H]2CC[C@]2(C)C(=O)CC[C@@H]32)C1)C(=O)N(CCCl)N=O [dehydroepiandrosterone-3β-/N^2-n-butyl-N^4-(2-chloroethyl)-N^4-nitroso allophanate/] |  |  | exhibit anti-tumor activity | exhibit anti-tumor activity | 
11 | C#C[C@]1(OC(=O)N(CCCl)N=O)CC[C@H]2[C@@H]3CCc4cc(OC(C)=O)ccc4[C@H]3CC[C@@]21C [17α-ethynylestradiol-3-acetate-17β-N-(2-chloroethyl)-N-nitroso carbamate] |  |  | exhibit anti-tumor activity | exhibit anti-tumor activity | 
12 | C[C@]12CC[C@H]3[C@@H](CC=C4C[C@@H](OC(=O)N(CCCl)N=O)CC[C@@]43C)[C@@H]1CC[C@@H]2OC(=O)N(CCCl)N=O [androstenediol-3β,17β-bis-/N-(2-chloroethyl)-N-nitroso carbamate/] | > 250 mg/kg | 0.25 mg/kg | exhibit anti-tumor activity |  | 
13 | C[C@]12CC[C@H](OC(=O)N(CCCl)C(=O)N(CCCl)N=O)CC1=CC[C@@H]1[C@@H]2CC[C@]2(C)C(=O)CC[C@@H]12 [dehydroepiandrosterone-3β-/N^2,N^4-bis (2-chloroethyl)-N^4-nitroso allophanate/] |  |  | exhibit anti-tumor activity | exhibit anti-tumor activity | 
14 | C[C@]12CC[C@@H]3c4ccc(OC(=O)N(CCCl)N=O)cc4CC[C@H]3[C@@H]1CC[C@@H]2OS(=O)(=O)O [estradiol-3-N-(2-chloroethyl)-N-nitroso carbamate-17β-sodium sulphate] |  |  | exhibit anti-tumor activity | exhibit anti-tumor activity | 
15 | C#C[C@]1(OC(=O)N(CCCl)N=O)CC[C@H]2[C@@H]3CCC4=C(CCC(=O)C4)[C@H]3CC[C@@]21C [norethynodrel-17β-N-(2-chloroethyl)-N-nitroso carbamate] |  |  | exhibit anti-tumor activity | exhibit anti-tumor activity | 
16 | CCN(N=O)C(=O)O[C@H]1CC[C@@]2(C)C(=CC[C@@H]3[C@@H]2CC[C@]2(C)C(=O)CC[C@@H]32)C1 [dehydroepiandrosterone-3β-N-ethyl-N-nitroso carbamate, reference compound] |  |  |  |  | effect on L 1210 [3]: without effect; anti-tumor activity (Hepatoma AH 130; [4]): inactive; Tumour inhibition % ([2]; 5×500 mg/kg i.p.): 0%; Lethality ([2]; 5×500 mg/kg i.p.): 1/8
17 | C[C@]12CC[C@H](OC(=O)N(CCF)N=O)CC1=CC[C@@H]1[C@@H]2CC[C@]2(C)C(=O)CC[C@@H]12 [dehydroepiandrosterone-3β-N-(2-fluoroethyl)-N-nitroso carbamate] |  |  | exhibit anti-tumor activity | exhibit anti-tumor activity | 
18 | C[C@]12CC[C@@H]3c4ccc(OC(=O)N(CCCl)N=O)cc4CC[C@H]3[C@@H]1CC[C@@H]2OP(=O)(O)O [estradiol-3-N-(2-chloroethyl)-N-nitroso carbamate-17β-dihydrogen phosphate] |  |  | exhibit anti-tumor activity | exhibit anti-tumor activity | 
19 | C[C@]12CC[C@H](OC(=O)NC(=O)N(CCCl)N=O)CC1=CC[C@@H]1[C@@H]2CC[C@]2(C)C(=O)CC[C@@H]12 [dehydroepiandrosterone-3β-/N^4-(2-chloroethyl)-N^4-nitroso allophanate/] |  |  | exhibit anti-tumor activity | exhibit anti-tumor activity | 
20 | CC(=O)O[C@H]1CC[C@H]2[C@@H]3CCc4cc(OC(=O)N(CCCl)C(=O)N(CCCl)N=O)ccc4[C@H]3CC[C@]12C [estradiol-17β-acetate-3-/N^2,N^4-bis (2-chloroethyl)-N-^4-nitroso allophanate/] |  |  | exhibit anti-tumor activity | exhibit anti-tumor activity | 
